Measured values: US20190389843A1, “PYRROLE mTORC INHIBITORS AND USES THEREOF” (Navitor Pharmaceuticals, Inc., priority 2016, published 2019)
Counter-ions that a name gives are not always drawn.

What was measured:
[1] = system: pAKT in MCF7 (measure of mTORC2 activity); experiment: AlphaLISA Ultra pAKT assay; format: cell-based; conditions: MCF-7 cells, 2 hours compound incubation
How it was run: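 MCF7 cells, 16,000-20,000 per well, treated with compound for 2 h at 0.5% final DMSO, then lysed. Phospho-AKT, as a readout of mTORC2 activity, measured by AlphaLISA Ultra with acceptor beads and then donor beads, 2 h each.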

[2] = system: pS6K1 in MCF7 (measure of mTORC1 activity); experiment: AlphaLISA Ultra pS6K1 assay; format: cell-based; conditions: MCF-7 cells, 2 hours compound incubation
How it was run: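 MCF7 cells, refreshed medium 2 h, treated with compound 2 h at 0.5% DMSO final, then lysed. Phospho-S6K1 in lysates detected by AlphaLISA Ultra (acceptor beads 2 h, donor beads 2 h), read as Alpha signal on a multimode reader.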

Row | IC50 ([1]; Homo sapiens, MCF7, 2 h) [nM] | IC50 ([2]; Homo sapiens, MCF7, 2 h) [nM] | IC50 [1] [nM] | IC50 [2] [nM] | SMILES
1 | > 3000 | 10 to 1000 |  |  | C[C@H]1CN(c2ccc(F)c(F)c2)CCN1C(=O)c1cc(CN2CCN(c3ccccc3Cl)CC2)cn1C [Example I-117, (S)-(4-((4-(2-chlorophenyl)piperazin-1-yl)methyl)-1-methyl-1H-pyrrol-2-yl)(4-(3,4-difluorophenyl)-2-methylpiperazin-1-yl)methanone]
2 | > 10000 | 1000 to 3000 |  |  | O=C(c1cc(CN2CCN(c3ccccc3Cl)CC2)cn1CC(F)(F)F)N1CCN(c2ccccc2)CC1 [Example I-114, (4-((4-(2-Chlorophenyl)piperazin-1-yl)methyl)-1-(2,2,2-trifluoroethyl)-1H-pyrrol-2-yl)(4-phenylpiperazin-1-yl)methanone trifluoroacetate salt]
3 | > 3000 | 1000 to 3000 |  |  | CC(c1cc(C(=O)N2CCN(c3ccccc3)CC2)n(C)c1)N1CCN(c2ccccc2Cl)CC1 (stereo not drawn) [Example I-106, 1-(2-Chlorophenyl)-4-{1-[1-methyl-5-(4-phenylpiperazine-1-carbonyl)-1H-pyrrol-3-yl]ethyl}piperazine]
4 | > 10000 | 1000 to 3000 |  |  | C[C@H]1CN(c2cc(F)c(F)c(F)c2)CCN1C(=O)c1cc(CN2CCN(c3ccccc3Cl)CC2)cn1C [Example I-88, (S)-(4-((4-(2-chlorophenyl)piperazin-1-yl)methyl)-1-methyl-1H-pyrrol-2-yl)(2-methyl-4-(3,4,5-trifluorophenyl)piperazin-1-yl)methanone]
5 | > 1000 | 10 to 1000 |  |  | Cc1c(CN2CCN(c3ccccc3Cl)CC2)cc(C(=O)N2CCN(c3ccc(F)c(F)c3)CC2)n1C [Example I-109, (4-((4-(2-chlorophenyl)piperazin-1-yl)methyl)-1,5-dimethyl-1H-pyrrol-2-yl)(4-(3,4-difluorophenyl)piperazin-1-yl)methanone]
6 |  |  | > 3000 | 10 to 1000 | Cc1c(CN2CCN(c3ncccc3Cl)CC2)cc(C(=O)N2CCN(c3ccccn3)CC2)n1C [Example I-44]
7 | > 10000 | 1000 to 3000 |  |  | Cc1c(CN2CCN(c3ccccc3C#N)CC2)cc(C(=O)N2CCN(c3ccccc3S(C)(=O)=O)CC2)n1C [Example I-21]
8 | > 10000 | 3000 to 10000 |  |  | Cn1cc(CN2CC3CN(c4ccccc4Cl)CC3C2)cc1C(=O)N1CCN(c2ccc(F)cc2)CC1 (stereo not drawn) [Example I-131]
9 | > 10000 | 3000 to 10000 |  |  | Cc1c(CN2CCN(c3ccccc3Cl)CC2)cc(C(=O)N2CCN(c3cc(F)c(F)c(F)c3)C[C@@H]2C)n1C [Example I-89, (S)-(4-((4-(2-Chlorophenyl)piperazin-1-yl)methyl)-1,5-dimethyl-1H-pyrrol-2-yl)(2-methyl-4-(3,4,5-trifluorophenyl)piperazin-1-yl)methanone]
10 | > 10000 | 3000 to 10000 |  |  | Cn1cc(CN2CCN(c3ccccc3Cl)CC2)cc1C(=O)N1CCN(c2cc(F)c(F)c(F)c2)CC1 [Example I-132, (4-((4-(2-Chlorophenyl)piperazin-1-yl)methyl)-1-methyl-1H-pyrrol-2-yl)(4-(3,4,5-trifluorophenyl)piperazin-1-yl)methanone trifluoroacetate salt]
11 | > 10000 | 1000 to 3000 |  |  | Cc1c(CN2CCN(c3ccccc3Cl)CC2)cc(C(=O)N2CCCN(c3ccc(F)cc3)CC2)n1C [Example I-49, (4-((4-(2-Chlorophenyl)piperazin-1-yl)methyl)-1,5-dimethyl-1H-pyrrol-2-yl)(4-(4-fluorophenyl)-1,4-diazepan-1-yl)methanone]
12 | > 3000 | 1000 to 3000 |  |  | Cn1cc(CN2CCN(c3ccccc3Cl)CC2)cc1C(=O)N1CCN(c2ccccc2)CC1 [Example I-144]
13 | > 3000 | 10 to 1000 |  |  | Cc1c(CN2CCN(c3ccccc3Cl)CC2)cc(C(=O)N2CCN(c3cccc(Cl)c3)CC2)n1C [Example I-118, (4-(3-Chlorophenyl)piperazin-1-yl)(4-((4-(2-chlorophenyl)piperazin-1-yl)methyl)-1,5-dimethyl-1H-pyrrol-2-yl)methanone]
14 | > 10000 | 3000 to 10000 |  |  | Cc1c(CN2CCN(c3ccccc3Cl)CC2)cc(C(=O)N2CCN(c3ccccc3)C[C@@H]2C)n1CCCN [Example I-29, (S)-(1-(3-aminopropyl)-4-((4-(2-chlorophenyl)piperazin-1-yl)methyl)-5-methyl-1H-pyrrol-2-yl)(2-methyl-4-phenylpiperazin-1-yl)methanone dihydrochloride salt]
15 | > 10000 | 1000 to 3000 |  |  | Cc1c(CN2CCN(c3ccccc3Cl)CC2)cc(C(=O)N2CCN(c3ccc4cc[nH]c4c3)C[C@@H]2C)n1C [Example I-34, (S)-(4-(1H-indol-6-yl)-2-methylpiperazin-1-yl)(4-((4-(2-chlorophenyl)piperazin-1-yl)methyl)-1,5-dimethyl-1H-pyrrol-2-yl)methanone trifluoroacetate salt]
16 | > 3000 | 1000 to 3000 |  |  | Cn1cc(CN2CCN(c3ccccc3Cl)CC2)cc1C(=O)N1CCN(c2ccc(F)cc2)CC1 [Example I-135]
17 | > 10000 | 1000 to 3000 |  |  | Cc1c(CN2CCN(c3ccccc3Cl)CC2)cc(C(=O)N2CCN(c3cccc4cc[nH]c34)C[C@@H]2C)n1C [Example I-31, (S)-(4-(1H-indol-7-yl)-2-methylpiperazin-1-yl)(4-((4-(2-chlorophenyl)piperazin-1-yl)methyl)-1,5-dimethyl-1H-pyrrol-2-yl)methanone]
18 | > 3000 | 10 to 1000 |  |  | Cc1c(CN2CCN(c3ncccc3Cl)CC2)cc(C(=O)N2CCN(c3cccc(Cl)c3)CC2)n1C [Example I-98, 1-({5-[4-(3-Chlorophenyl)piperazine-1-carbonyl]-1,2-dimethyl-1H-pyrrol-3-yl}methyl)-4-(3-chloropyridin-2-yl)piperazine]

Row | IC50 ([1]; Homo sapiens, MCF7, 2 h) [nM] | IC50 ([2]; Homo sapiens, MCF7, 2 h) [nM] | IC50 [1] [nM] | IC50 [2] [nM] | SMILES
19 | > 10000 | 3000 to 10000 |  |  | Cn1cc(CN2CCN(c3ccccc3C#N)CC2)cc1C(=O)N1CCN(c2ccc(F)cc2)CC1 [Example I-73]
20 | > 3000 | 1000 to 3000 |  |  | Cc1ccccc1N1CCN(Cc2cc(C(=O)N3CCN(c4ccccc4)CC3)n(C)c2)CC1 [Example I-134, (1-methyl-4-((4-o-tolylpiperazin-1-yl)methyl)-1H-pyrrol-2-yl)(4-phenylpiperazin-1-yl)methanone]
21 | > 10000 | 1000 to 3000 |  |  | Cc1c(CN2CCN(c3ccccc3C#N)CC2)cc(C(=O)N2CCN(c3cccnn3)CC2)n1C [Example I-16]
22 | > 3000 | 10 to 1000 |  |  | Cc1c(CN2CCN(c3ccccc3C#N)CC2)cc(C(=O)N2CCN(c3ccccn3)CC2)n1C [Example I-60]
23 | > 10000 | 10 to 1000 |  |  | Cc1c(CN2CCN(c3ncccc3Cl)CC2)cc(C(=O)N2CCN(c3cc(F)c(F)cc3C#N)CC2)n1C [Example I-3]
24 | > 3000 | 1000 to 3000 |  |  | Cn1cc(CN2CCN(c3ccccc3Cl)CC2)cc1C(=O)N1CCN(c2cccc(C#N)c2)CC1 [Example I-138, 3-(4-(4-((4-(2-chlorophenyl)piperazin-1-yl)methyl)-1-methyl-1H-pyrrole-2-carbonyl)piperazin-1-yl)benzonitrile]
25 | > 10000 | 3000 to 10000 |  |  | COCCn1cc(CN2CCN(c3ccccc3)CC2)cc1C(=O)N1CCN(c2ccccc2C#N)CC1 [Example I-149]
26 | > 10000 | 1000 to 3000 |  |  | Cc1c(CN2CCN(c3ccccc3Cl)CC2)cc(C(=O)N2CCN(c3cccc(CCCN)c3)C[C@H]2C)n1C [Example I-27, (R)-(4-(3-(3-aminopropyl)phenyl)-2-methylpiperazin-1-yl)(4-((4-(2-chlorophenyl)piperazin-1-yl)methyl)-1,5-dimethyl-1H-pyrrol-2-yl)methanone trifluoroacetate salt]
27 | > 10000 | 1000 to 3000 |  |  | Cc1c(CN2CCN(c3ccccc3C#N)CC2)cc(C(=O)N2CCN(c3ccc(C#N)cc3)CC2)n1C [Example I-53]
28 | > 3000 | 1000 to 3000 |  |  | C[C@H]1CN(c2ccccc2)CCN1C(=O)c1cc(CN2CCN(c3ccccc3Cl)CC2)cn1C [Example I-136, (S)-(4-((4-(2-chlorophenyl)piperazin-1-yl)methyl)-1-methyl-1H-pyrrol-2-yl)(2-methyl-4-phenylpiperazin-1-yl)methanone]
29 | > 10000 | 1000 to 3000 |  |  | COCCn1cc(CN2CCN(c3ccccc3Cl)CC2)cc1C(=O)N1CCN(c2ccc(F)cc2)CC1 [Example I-140]
30 | > 10000 | 1000 to 3000 |  |  | Cn1cc(CN2CCC3(CCN(c4ccccc4Cl)C3)C2)cc1C(=O)N1CCN(c2ccc(F)cc2)CC1 (stereo not drawn) [Example I-128]
31 | > 1000 | 10 to 1000 |  |  | Cc1c(CN2CCN(c3ccccc3Cl)CC2)cc(C(=O)N2CCN(c3ccc(F)c(F)c3)C[C@@H]2C)n1C [Example I-116, (S)-(4-((4-(2-chlorophenyl)piperazin-1-yl)methyl)-1,5-dimethyl-1H-pyrrol-2-yl)(4-(3,4-difluorophenyl)-2-methylpiperazin-1-yl)methanone]
32 | > 10000 | 3000 to 10000 |  |  | COCCn1cc(CN2CCN(c3ccccc3C(F)(F)F)CC2)cc1C(=O)N1CCN(c2ccccc2)CC1 [Example I-139]
33 | > 10000 | 10 to 1000 |  |  | Cc1c(CN2CCN(c3ccccc3Cl)CC2)cc(C(=O)N2CCN(c3ccccc3C#N)C[C@@H]2C)n1C [Example I-100]
34 | > 10000 | 3000 to 10000 |  |  | Cn1cc(CN2CCN(c3ccccc3C(F)(F)F)CC2)cc1C(=O)N1CCN(c2ccccc2)CC1 [Example I-126, 1-{[1-Methyl-5-(4-phenylpiperazine-1-carbonyl)-1H-pyrrol-3-yl]methyl}-4-[2-(trifluoromethyl)phenyl]piperazine]
35 | > 1000 | 10 to 1000 |  |  | Cc1c(CN2CCN(c3ccccc3C#N)CC2)cc(C(=O)N2CCN(c3cc(Cl)ccn3)CC2)n1C [Example I-68]
36 | > 3000 | 10 to 1000 |  |  | Cc1cccc(N2CCN(C(=O)c3cc(CN4CCN(c5ccccc5Cl)CC4)c(C#N)n3C)CC2)n1 [Example I-38]
